{
  "source": "patent US12570657B2",
  "about": "“Mesylate salts of heterocyclic cytokinins, compositions containing these derivatives and use thereof” (UNIVERZITA PALACKEHO V OLOMOUCI, priority 2020, dated 2026)",
  "key": {"NIH-3T3": {"test_system": "NIH-3T3", "assay": "In vitro cytotoxicity, Calcein AM assay, NIH-3T3", "type": "cell-based", "details": "Mus musculus, NIH3T3, 72 h, 3-day Calcein-AM assay", "excerpt": "Because toxic compounds adversely affect cell metabolic processes, many standard cytotoxicity assays are based on measuring the rate of metabolism of various artificial substrates. The resulting product is then quantified, for example, by spectrometry. Assays can be easily modified for use in 96-well plates, A microtiter assay based on the quantification of Calcein AM metabolism was used to evaluate the cytotoxicity of cytokinins, for example meta-topolin, ortho-topolin, kinetin, BAP or its mesylate salts, but also a number of other cytokinin mesylate derivatives according to the invention. The test is widely used in drug screening programs and in chemosensitivity testing. In living cells, Calcein AM is enzymatically hydrolyzed and the accumulation of the resulting calcein is manifested by green fluorescence. The following cell lines—RPMI 8226 (multiple myeloma), CEM (T-lymphoblastic leukemia), K562 (chronic myeloid leukemia), HL-60 (promyelocytic, leukemia), MCF-7 (breast adenocarcinoma), HeLa (cervical cancer), G361 (malignant melanoma), HOS (human osteosarcoma) and BJ (human foreskin fibroblasts)—were obtained from the American Type Culture Collection (Manassas, VA, USA). These cells were maintained in standard DMEM or RPMI medium (Sigma, MO, USA) supplemented with heat-inactivated fetal bovine serum (10%) with 2 mM L-glutamine and penicillin-streptomycin (1%) under standard cell culture conditions (37° C., 5% CO2 in a humid environment) and subcultured two or three times a week using a standard trypsinization procedure. Approximately 10,000 cells in 80 μl of medium were seeded in a 96-well microtiter plate. After 12 hours of incubation, the compounds to be tested were added in 20 μl aliquots. Control cultures were treated with DMSO alone. […] Serial, 3-fold dilutions (six in total, peak concentrations in 166 μM incubations) of each compound were tested. After 72 hours of incubation, Calcein AM solution (Molecular Probes) was added to a final concentration of 1 μg/ml and the cells were incubated for another hour. Free calcein fluorescence was then quantified using a Fluoroscan Ascent fluorometer (Microsystems), and the percentage of surviving cells in each well was calculated by dividing the OD obtained from each cell by the exposed cells by the mean OD obtained from control wells×100%, Finally, IC50 values (concentration causing a 50% decrease in cellular esterase activity) were calculated for each compound generated from dose-response curves (Krys̆tof et al., 2005, Bioorg. Med. Chem. Lett. 12, 3283-3286). The IC50 values reported here are averages obtained from at least three independent experiments, where the individual replication values fell within 20% of the average. […]"}, "rose explants": {"test_system": "rose explants", "assay": "In vitro and post vitro multiplication and rooting of rose", "type": "in vivo, Rosa multiflora", "details": "for Number of roots per plant / Overall length of plant (cm): Ex vitro, after four weeks of acclimatising in peat; for Number of new shoots per explant / Number of roots per explant / Overall length of explant (cm) / number of flowers per explant: In vitro, 10 μM cytokinin, 8 weeks", "description": "The aim of this experiment was to test whether the new compounds are of practical use in tissue culture practice. The multiplication rate was investigated and the post vitro effects on rooting were examined Rosa hybrida (pot rose cultivar) was cultured in 350 ml vessels with a screw on polycarbonate lid. Each culture vessel contained 100 ml autoclaved medium (120° C., 20 min). The cultures were maintained at 23±2° C. under a 16 h photoperiod at 40 μM·m^−2 s^−1 PAR. The basal medium (BMR) contained Murashige and Skoog (1962) macroelements, microelements and vitamins, 95 μM NaFeEDTA, 555 μM myo-inositol, 111 mM sucrose, 1.332 mM glycine, 684 μM L-glutamine and 7 g/l agar. This medium was supplemented with 10 μM BAP, mT, or 3MeOBAP, or the corresponding mesylate salts. The control medium didn't contain any cytokinin After a culture period of 8 weeks, the number of induced shoots per explant was determined, as well as root number/explant and total root length/explant. The roots were removed and the explants (shoot clusters) were planted in unfertilised peat. After four weeks of acclimatising in a fog unit, root number and root length was determined. As expected, a cytokinin free medium yielded almost no new shoots. The original shoot explant grew out as a good quality single shoot that rooted very well. […] Explants growing on cytokininin mesylates were characterized by a high multiplication index (a large number of new shoots) and were more rooted in comparison with free bases. The use of cytokinin mesylates led to an increase in all monitored parameters in plant culture compared to free cytokinin bases."}, "[1]": {"assay": "Disproportionation stability study (water slurry, XRPD)", "type": "physicochemical", "details": "slurried in distilled water ca. 48 hours", "description": "A 50 mg sample of crystalline meta-topolin mesylate crystalline salt was slurried in 250 μL distilled water for ca. 48 hours and then checked by XRPD for disproportionation."}, "[2]": {"assay": "Storage stability study of solid crystalline salt (XRPD, colour)", "type": "physicochemical", "details": "sealed tube, 25° C., 60 days", "description": "50 mg sample of crystalline meta-topolin mesylate crystalline salt was placed in an eppendorf tube and sealed. The sample was kept at 25° C. for 60 days. No color change was noted during the storage period. XRPD of samples were taken after 60 days to investigate any solid form change."}, "[3]": {"assay": "Solubility in organic solvents (progressive solvent addition)", "type": "physicochemical", "details": "organic solvent or mixture, thermodynamic from solid", "description": "Solubility in organic solvents was measured using the following protocol. Approximately 25 mg portions of meta-topolin and crystalline meta-topolin mesylate salt were placed in 48 different vials, separately. 5 volume aliquots of each solvent were added progressively (repeatedly) to the vials. After each addition, the mixture was checked for dissolution and if no dissolution was visible, the procedure was continued until dissolution was observed, or until 50 volumes have been added."}, "[4]": {"details": "water; reported value; cited from earlier work"}, "[5]": {"details": "DMF, read-out: Solubility in DMF"}, "[6]": {"details": "DMSO, read-out: Solubility in DMSO"}, "[7]": {"details": "acetone, read-out: Solubility in aceton"}, "[8]": {"details": "acetonitrile, read-out: Solubility in acetonitrile"}, "[9]": {"details": "ethanol, read-out: Solubility in ethanol"}, "[10]": {"details": "heptane, read-out: Solubility in heptane"}, "[11]": {"details": "methanol, read-out: Solubility in methanol"}},
  "note": "Read-outs that look alike come from different tables or passages of the source.",
  "data": [
    {"smiles": "COc1cccc(CNc2ncnc3nc[nH]c23)c1", "note": "[3MeOBAP, 6-(3-methoxybenzylamino)purine]", "values": [
      {"measurement": "IC50", "setting": "NIH-3T3", "result": "> 167", "unit": "µM"},
      {"measurement": "Number of roots per plant", "setting": "rose explants", "result": 1.7},
      {"measurement": "Overall length of plant (cm)", "setting": "rose explants", "result": 4.1, "unit": "cm"},
      {"measurement": "Number of new shoots per explant", "setting": "rose explants", "result": 4.3},
      {"measurement": "Number of roots per explant", "setting": "rose explants", "result": 0.0},
      {"measurement": "Overall length of explant (cm)", "setting": "rose explants", "result": 0.0, "unit": "cm"},
      {"measurement": "number of flowers per explant", "setting": "rose explants", "result": 0.03}
    ]},
    {"smiles": "CS(=O)(=O)O.c1ccc(CNc2ncnc3nc[nH]c23)cc1", "note": "[BAP mesylate, 6-benzylaminopurine mesylate]", "values": [
      {"measurement": "IC50", "setting": "NIH-3T3", "result": "> 167", "unit": "µM"},
      {"measurement": "Number of roots per plant", "setting": "rose explants", "result": 0.9},
      {"measurement": "Overall length of plant (cm)", "setting": "rose explants", "result": 1.4, "unit": "cm"},
      {"measurement": "Number of new shoots per explant", "setting": "rose explants", "result": 4.1},
      {"measurement": "Number of roots per explant", "setting": "rose explants", "result": 0.0},
      {"measurement": "Overall length of explant (cm)", "setting": "rose explants", "result": 0.0, "unit": "cm"},
      {"measurement": "number of flowers per explant", "setting": "rose explants", "result": 0.00}
    ]},
    {"smiles": "c1ccc(CNc2ncnc3nc[nH]c23)cc1", "note": "[BAP, 6-benzylaminopurine]", "values": [
      {"measurement": "Number of roots per plant", "setting": "rose explants", "result": "rooted badly"},
      {"measurement": "Overall length of plant (cm)", "setting": "rose explants", "result": 1.1, "unit": "cm"},
      {"measurement": "Number of roots per plant", "setting": "rose explants; listed as 6-benzylaminopurine", "result": 0.6},
      {"measurement": "Number of new shoots per explant", "setting": "rose explants", "result": "high shoot multiplication rate"},
      {"measurement": "Number of roots per explant", "setting": "rose explants", "result": 0.0},
      {"measurement": "Overall length of explant (cm)", "setting": "rose explants", "result": 0.0, "unit": "cm"},
      {"measurement": "number of flowers per explant", "setting": "rose explants", "result": 0.00},
      {"measurement": "Number of new shoots per explant", "setting": "rose explants; listed as 6-benzylaminopurine", "result": 3.8}
    ]},
    {"smiles": "CS(=O)(=O)O.Oc1cccc(CNc2ncnc3nc[nH]c23)c1", "note": "[mT mesylate, 6-(3-hydroxybenzylamino)purine mesylate]", "values": [
      {"measurement": "Disproportionation (XRPD)", "setting": "[1]", "result": "No signs of disproportionation were observed"},
      {"measurement": "Storage stability (XRPD pattern and colour)", "setting": "[2]", "result": "did not reveal any changes in XRPD spektra, or change in color"},
      {"measurement": "Number of roots per plant", "setting": "rose explants", "result": 1.8},
      {"measurement": "Overall length of plant (cm)", "setting": "rose explants", "result": 4.3, "unit": "cm"},
      {"measurement": "Number of new shoots per explant", "setting": "rose explants", "result": 2.4},
      {"measurement": "Number of roots per explant", "setting": "rose explants", "result": 0.0},
      {"measurement": "Overall length of explant (cm)", "setting": "rose explants", "result": 0.0, "unit": "cm"},
      {"measurement": "number of flowers per explant", "setting": "rose explants", "result": 0.17},
      {"measurement": "solubility", "setting": "[3]; [5]", "result": 6000, "unit": "µg/mL"},
      {"measurement": "solubility", "setting": "[3]; [6]", "result": 22000, "unit": "µg/mL"},
      {"measurement": "solubility", "setting": "[3]; [7]", "result": 400, "unit": "µg/mL"},
      {"measurement": "solubility", "setting": "[3]; [8]", "result": "< 250", "unit": "µg/mL"},
      {"measurement": "solubility", "setting": "[3]; [9]", "result": 400, "unit": "µg/mL"},
      {"measurement": "solubility", "setting": "[3]; [10]", "result": "< 100", "unit": "µg/mL"},
      {"measurement": "solubility", "setting": "[3]; [11]", "result": 700, "unit": "µg/mL"}
    ]},
    {"smiles": "Oc1cccc(CNc2ncnc3nc[nH]c23)c1", "note": "[meta-topolin (mT), 6-(3-hydroxybenzylamino)purine]", "values": [
      {"measurement": "Number of roots per plant", "setting": "rose explants", "result": 1.4},
      {"measurement": "Overall length of plant (cm)", "setting": "rose explants", "result": 3.8, "unit": "cm"},
      {"measurement": "Number of new shoots per explant", "setting": "rose explants", "result": 2.1},
      {"measurement": "Number of roots per explant", "setting": "rose explants", "result": 0.0},
      {"measurement": "Overall length of explant (cm)", "setting": "rose explants", "result": 0.0, "unit": "cm"},
      {"measurement": "number of flowers per explant", "setting": "rose explants", "result": 0.16},
      {"measurement": "solubility", "setting": "[3]; [5]", "result": 6000, "unit": "µg/mL"},
      {"measurement": "solubility", "setting": "[3]; [6]", "result": 24000, "unit": "µg/mL"},
      {"measurement": "solubility", "setting": "[3]; [7]", "result": 400, "unit": "µg/mL"},
      {"measurement": "solubility", "setting": "[3]; [8]", "result": "< 250", "unit": "µg/mL"},
      {"measurement": "solubility", "setting": "[3]; [9]", "result": 5000, "unit": "µg/mL"},
      {"measurement": "solubility", "setting": "[3]; [10]", "result": "< 100", "unit": "µg/mL"},
      {"measurement": "solubility", "setting": "[3]; [11]", "result": 5000, "unit": "µg/mL"},
      {"measurement": "aqueous solubility (reported)", "setting": "[4]", "result": "< 250", "unit": "µg/mL"}
    ]}
  ]
}
